The values that follow come from patent publication US20140329814A2, “Compositions for Treatment of Cystic Fibrosis and Other Chronic Diseases” (Vertex Pharmaceuticals Incorporated, priority 2010, published 2014).

Where a name gives a salt, the structure may show the parent alone. Bounds are passed on as bounds.

T1 sequence (P13569 with tags, fused parts or gaps DEL508-508): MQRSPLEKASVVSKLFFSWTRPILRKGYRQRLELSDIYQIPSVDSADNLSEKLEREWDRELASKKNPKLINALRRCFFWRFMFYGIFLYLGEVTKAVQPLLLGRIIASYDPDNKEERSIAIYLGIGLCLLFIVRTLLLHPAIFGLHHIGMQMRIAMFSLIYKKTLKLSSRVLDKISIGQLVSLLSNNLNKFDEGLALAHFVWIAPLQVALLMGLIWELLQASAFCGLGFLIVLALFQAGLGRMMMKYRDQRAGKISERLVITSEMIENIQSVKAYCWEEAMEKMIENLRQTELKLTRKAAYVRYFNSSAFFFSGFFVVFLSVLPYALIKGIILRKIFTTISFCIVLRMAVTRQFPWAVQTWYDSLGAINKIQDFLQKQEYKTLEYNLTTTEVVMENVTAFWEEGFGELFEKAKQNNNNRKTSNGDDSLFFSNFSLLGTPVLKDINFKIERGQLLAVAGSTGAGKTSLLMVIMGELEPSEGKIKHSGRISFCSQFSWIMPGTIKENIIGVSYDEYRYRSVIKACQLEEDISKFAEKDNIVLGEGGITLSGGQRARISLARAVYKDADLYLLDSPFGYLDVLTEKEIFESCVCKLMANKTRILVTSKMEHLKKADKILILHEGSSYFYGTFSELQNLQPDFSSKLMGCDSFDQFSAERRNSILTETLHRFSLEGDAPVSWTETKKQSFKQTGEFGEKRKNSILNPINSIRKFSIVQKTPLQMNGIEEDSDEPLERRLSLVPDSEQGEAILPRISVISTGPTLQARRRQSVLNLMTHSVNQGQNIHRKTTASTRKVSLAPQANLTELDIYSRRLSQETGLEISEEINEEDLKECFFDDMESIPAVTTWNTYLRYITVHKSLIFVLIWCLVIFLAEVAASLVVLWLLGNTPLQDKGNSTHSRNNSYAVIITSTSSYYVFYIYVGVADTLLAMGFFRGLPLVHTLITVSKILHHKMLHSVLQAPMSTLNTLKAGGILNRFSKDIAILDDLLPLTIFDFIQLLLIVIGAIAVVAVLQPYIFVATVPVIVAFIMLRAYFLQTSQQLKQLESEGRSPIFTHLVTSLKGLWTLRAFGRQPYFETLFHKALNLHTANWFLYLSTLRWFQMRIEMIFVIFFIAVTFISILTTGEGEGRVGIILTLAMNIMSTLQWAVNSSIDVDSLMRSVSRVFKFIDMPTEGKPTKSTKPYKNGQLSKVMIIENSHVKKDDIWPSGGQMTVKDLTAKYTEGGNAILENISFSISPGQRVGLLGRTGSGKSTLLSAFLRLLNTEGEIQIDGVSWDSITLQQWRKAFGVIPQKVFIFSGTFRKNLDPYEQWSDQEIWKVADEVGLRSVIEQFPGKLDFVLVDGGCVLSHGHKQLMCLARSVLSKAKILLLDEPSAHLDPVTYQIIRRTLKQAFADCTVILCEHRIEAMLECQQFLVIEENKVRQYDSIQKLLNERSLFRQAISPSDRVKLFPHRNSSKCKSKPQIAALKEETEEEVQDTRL

The first assay has as its target T1, ΔF508-CFTR (Homo sapiens, UniProt P13569, DEL508-508).
T1 construct: expressed in transfected cells
The experiment in a line: Membrane potential optical (FRET/VIPR) assay, identification of potentiator compounds, NIH3T3 cells expressing ΔF508-CFTR. Type of assay: cell-based. The conditions noted are these: Table II.A-4; EC50 of certain embodiments. From the text:
I) Membrane Potential Optical Methods for Assaying ΔF508-CFTR Modulation Properties of Compounds
The optical membrane potential assay utilized voltage-sensitive FRET sensors described by Gonzalez and Tsien (See, Gonzalez, J. E. and R. Y. Tsien (1995) “Voltage sensing by fluorescence resonance energy transfer in single cells” Biophys J 69(4): 1272-80, and Gonzalez, J. E. and R. Y. Tsien (1997) “Improved indicators of cell membrane potential that use fluorescence resonance energy transfer” Chem Biol 4(4): 269-77) in combination with instrumentation for measuring fluorescence changes such as the Voltage/Ion Probe Reader (VIPR) (See, Gonzalez, J. E., K. Oades, et al. (1999) “Cell-based assays and instrumentation for screening ion-channel targets” Drug Discov Today 4(9): 431-439).
These voltage sensitive assays are based on the change in fluorescence resonant energy transfer (FRET) between the membrane-soluble, voltage-sensitive dye, DiSBAC2(3), and a fluorescent phospholipid, CC2-DMPE, which is attached to the outer leaflet of the plasma membrane and acts as a FRET donor. Changes in membrane potential (Vm) cause the negatively charged DiSBAC2(3) to redistribute across the plasma membrane and the amount of energy transfer from CC2-DMPE changes accordingly. The changes in fluorescence emission were monitored using VIPR™ II, which is an integrated liquid handler and fluorescent detector designed to conduct cell-based screens in 96- or 384-well microtiter plates.
To identify potentiators of ΔF508-CFTR, a double-addition HTS assay format was developed. During the first addition, a Cl^−-free medium with or without test compound was added to each well. After 22 sec, a second addition of Cl^−-free medium containing 2-10 μM forskolin was added to activate ΔF508-CFTR. The extracellular Cl^− concentration following both additions was 28 mM, which promoted Cl^− efflux in response to ΔF508-CFTR activation and the resulting membrane depolarization was optically monitored using the FRET-based voltage-sensor dyes. Solutions
Bath Solution #1: (in mM) NaCl 160, KCl 4.5, CaCl2 2, MgCl2 1, HEPES 10, pH 7.4 with NaOH. Chloride-free bath solution: Chloride salts in Bath Solution #1 are substituted with gluconate salts. CC2-DMPE: Prepared as a 10 mM stock solution in DMSO and stored at −20° C. DiSBAC2(3): Prepared as a 10 mM stock in DMSO and stored at −20° C.
NIH3T3 mouse fibroblasts stably expressing ΔF508-CFTR are used for optical measurements of membrane potential. The cells are maintained at 37° C. in 5% CO2 and 90% humidity in Dulbecco's modified Eagle's medium supplemented with 2 mM glutamine, 10% fetal bovine serum, 1× NEAA, β-ME, 1× pen/strep, and 25 mM HEPES in 175 cm^2 culture flasks. […]
`Nc1cccc(NC(=O)c2c[nH]c3ccccc3c2=O)c1` [compound 431, N-(3-aminophenyl)-4-oxo-1H-quinoline-3-carboxamide]: the EC50 (in general, the concentration that produces a half-maximal response) was < 10 µM.
In the case of `O=C(Nc1ccc(N2CCOCC2)cc1)c1c[nH]c2ccccc2c1=O` [compound 457, N-(4-morpholinophenyl)-4-oxo-1H-quinoline-3-carboxamide], the EC50 was < 10 µM.
Consider `CC(C)(C)OC(=O)NCC(C)(C)c1ccc(NC(=O)c2c[nH]c3ccccc3c2=O)cc1` [compound 88, [2-methyl-2-[4-[(4-oxo-1H-quinolin-3-yl)carbonylamino]phenyl]-propyl]aminoformic acid tert-butyl ester], for which the EC50 is < 10 µM.
The same measure, in the same setting: for `O=C(Nc1ccccc1Oc1ccccc1)c1c[nH]c2ccccc2c1=O` [compound 413, 4-oxo-N-(2-phenoxyphenyl)-1H-quinoline-3-carboxamide] the value was 10 to 25 µM.

The next assay deals with T2, epithelial sodium channel (ENaC) (Homo sapiens, UniProt P37088+P51168+P51170).
T2 construct: host or cells: primary human bronchial epithelial cells (HBECs), air-liquid interface culture
T2 sequence (P37088 1-669): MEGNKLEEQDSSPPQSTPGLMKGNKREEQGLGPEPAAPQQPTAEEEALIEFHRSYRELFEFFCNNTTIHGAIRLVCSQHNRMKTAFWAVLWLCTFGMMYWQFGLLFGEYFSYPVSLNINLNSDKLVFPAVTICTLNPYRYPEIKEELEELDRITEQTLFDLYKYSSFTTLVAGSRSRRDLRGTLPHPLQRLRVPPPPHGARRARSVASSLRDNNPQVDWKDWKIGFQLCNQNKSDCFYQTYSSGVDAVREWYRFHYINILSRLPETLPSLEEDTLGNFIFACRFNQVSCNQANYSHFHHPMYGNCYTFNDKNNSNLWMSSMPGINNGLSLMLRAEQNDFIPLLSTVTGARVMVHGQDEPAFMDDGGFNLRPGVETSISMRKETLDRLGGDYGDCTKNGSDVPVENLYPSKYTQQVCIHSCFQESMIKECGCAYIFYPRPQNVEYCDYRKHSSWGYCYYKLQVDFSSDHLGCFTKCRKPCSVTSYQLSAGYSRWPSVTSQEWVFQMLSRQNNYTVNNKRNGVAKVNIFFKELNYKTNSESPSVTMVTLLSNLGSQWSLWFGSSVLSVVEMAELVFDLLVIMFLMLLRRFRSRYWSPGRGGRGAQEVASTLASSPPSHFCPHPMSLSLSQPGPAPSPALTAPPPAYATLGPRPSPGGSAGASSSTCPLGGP
T2 sequence (P51168 1-640): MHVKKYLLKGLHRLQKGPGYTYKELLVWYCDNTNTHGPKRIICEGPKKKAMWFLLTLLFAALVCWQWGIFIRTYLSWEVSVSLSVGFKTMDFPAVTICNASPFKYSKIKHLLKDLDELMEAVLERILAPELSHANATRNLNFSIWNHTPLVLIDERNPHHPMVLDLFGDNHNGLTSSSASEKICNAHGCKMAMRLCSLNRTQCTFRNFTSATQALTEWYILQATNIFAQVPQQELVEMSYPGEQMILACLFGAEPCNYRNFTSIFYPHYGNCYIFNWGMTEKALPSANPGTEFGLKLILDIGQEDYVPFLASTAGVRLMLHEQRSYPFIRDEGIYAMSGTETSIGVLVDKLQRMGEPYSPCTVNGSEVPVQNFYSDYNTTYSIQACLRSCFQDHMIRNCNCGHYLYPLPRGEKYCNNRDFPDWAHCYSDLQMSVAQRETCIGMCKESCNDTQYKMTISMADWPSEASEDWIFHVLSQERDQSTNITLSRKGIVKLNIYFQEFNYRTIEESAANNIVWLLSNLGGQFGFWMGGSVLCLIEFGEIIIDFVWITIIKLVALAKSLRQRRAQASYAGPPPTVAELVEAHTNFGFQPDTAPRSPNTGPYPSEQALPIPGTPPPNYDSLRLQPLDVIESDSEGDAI
T2 sequence (P51170 1-649): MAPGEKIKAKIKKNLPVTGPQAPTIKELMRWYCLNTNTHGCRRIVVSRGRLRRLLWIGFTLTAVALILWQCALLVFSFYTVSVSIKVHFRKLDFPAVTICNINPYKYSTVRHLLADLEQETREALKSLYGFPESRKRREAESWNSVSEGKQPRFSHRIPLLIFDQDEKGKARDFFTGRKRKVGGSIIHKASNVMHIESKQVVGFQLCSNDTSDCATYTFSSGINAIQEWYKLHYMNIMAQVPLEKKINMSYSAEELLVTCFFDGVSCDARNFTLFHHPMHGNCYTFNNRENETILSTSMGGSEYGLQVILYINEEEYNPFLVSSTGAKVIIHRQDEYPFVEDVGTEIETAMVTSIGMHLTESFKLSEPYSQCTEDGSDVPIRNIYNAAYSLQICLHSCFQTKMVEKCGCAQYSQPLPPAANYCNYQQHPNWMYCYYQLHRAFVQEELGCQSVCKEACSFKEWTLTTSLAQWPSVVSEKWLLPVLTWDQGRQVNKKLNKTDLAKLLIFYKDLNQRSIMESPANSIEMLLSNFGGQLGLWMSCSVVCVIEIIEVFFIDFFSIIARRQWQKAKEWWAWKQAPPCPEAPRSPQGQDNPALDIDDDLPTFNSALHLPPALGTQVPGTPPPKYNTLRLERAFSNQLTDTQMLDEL
The experiment in a line: Short circuit current (ISC) measurements in human bronchial epithelial cells, inhibition of amiloride-sensitive ISC. Format: cell-based. The conditions noted are these: inhibition of the amiloride-sensitive ISC, HBECs at air-liquid interface, compound added to apical chamber. The protocol: Compounds of Formula E and their pharmaceutically acceptable salts, hereinafter referred to alternatively as “illustrative ENaC inhibitors of the invention”, are useful as pharmaceuticals. In particular, the compounds have good ENaC blocker activity and may be tested in the following assays.
Human Bronchial Epithelial cells (HBECs) (Cambrex) were cultured under air-liquid interface conditions to provide a well differentiated mucociliary phenotype.
HBECs were cultured using a modification of the method described by Gray and colleagues (Gray et al., 1996). […]
Snapwell inserts were mounted in Vertical Diffusion Chambers (Costar) and were bathed with continuously gassed Ringer solution (5% CO2 in O2; pH 7.4) maintained at 37° C. containing (in mM): 120 NaCl, 25 NaHCO3, 3.3 KH2PO4, 0.8 K2HPO4, 1.2 CaCl2, 1.2 MgCl2, and 10 glucose. […] RT was measured by applying a 1- or 2-mV pulse at 30-s intervals and calculating RT by Ohm's law. Data were recorded using a PowerLab workstation (ADInstruments).
Test compounds were prepared as a 10 mM stock solution in DMSO (95%). […] At the completion of the concentration-response experiment, amiloride (10 μM) was added into the apical chamber to enable the total amiloride-sensitive current to be measured. […]
Results are expressed as the mean % inhibition of the amiloride-sensitive ISC. […]
Take `CCCC1N/C(=N/C(=O)c2nc(Cl)c(N)nc2N)NC1CCCc1ccc(OCC(O)CO)cc1` (stereo in doubt) [Example 29, (E)-3,5-diamino-6-chloro-N-(4-(3-(4-((S)-2,3-dihydroxypropoxy)phenyl)propyl)-5-propylimidazolidin-2-ylidene)pyrazine-2-carboxamide hydrochloride]: 5 nM corresponded to half-maximal inhibition (IC50).
In the case of `Cc1oc(-c2ccccc2)nc1COc1ccc(S(=O)(=O)N2CCC3(CC2)CN/C(=N\C(=O)c2nc(Cl)c(N)nc2N)N3)cc1` [Example 238, 3,5-Diamino-6-chloro-pyrazine-2-carboxylic acid [8-[4-(5-methyl-2-phenyl-oxazol-4-ylmethoxy)-benzenesulfonyl]-1,3,8-triaza-spiro[4.5]dec-(2E)-ylidene]-amide], the midpoint of inhibition, the IC50, lay at 11.9 nM.
